From ChEMBL document CHEMBL2069170, “Geranylphenazinediol, an acetylcholinesterase inhibitor produced by a Streptomyces species” (J Nat Prod, 2012)
The source made the active and inactive calls. No cut-off for these calls is given here.

Legend:
[1] = Toxicity against human KIF5 cells incubated for 24 hrs by CellTiter Blue cell viability assay; assay type: cell-based
Bacillus subtilis = assay: Antimicrobial activity against Bacillus subtilis DSM 347 incubated for 5 hrs by resazurin dye based assay; assay type: functional, organism-based; settings: DSM 347, 5 h
Acetylcholinesterase = Acetylcholinesterase (Homo sapiens, UniProt P22303); assay: Inhibition of human AChE pre-incubated for 10 mins before acetylthiocholine iodide substrate addition
Xanthomonas campestris = assay: Antimicrobial activity against Xanthomonas campestris DSM 2405 incubated for 6 hrs by resazurin dye based assay; assay type: functional, organism-based
Candida albicans = assay: Antimicrobial activity against Candida albicans DSM 1386 incubated for 5 hrs by resazurin dye based assay; assay type: functional, organism-based

Chain of Acetylcholinesterase (P22303 whole entry): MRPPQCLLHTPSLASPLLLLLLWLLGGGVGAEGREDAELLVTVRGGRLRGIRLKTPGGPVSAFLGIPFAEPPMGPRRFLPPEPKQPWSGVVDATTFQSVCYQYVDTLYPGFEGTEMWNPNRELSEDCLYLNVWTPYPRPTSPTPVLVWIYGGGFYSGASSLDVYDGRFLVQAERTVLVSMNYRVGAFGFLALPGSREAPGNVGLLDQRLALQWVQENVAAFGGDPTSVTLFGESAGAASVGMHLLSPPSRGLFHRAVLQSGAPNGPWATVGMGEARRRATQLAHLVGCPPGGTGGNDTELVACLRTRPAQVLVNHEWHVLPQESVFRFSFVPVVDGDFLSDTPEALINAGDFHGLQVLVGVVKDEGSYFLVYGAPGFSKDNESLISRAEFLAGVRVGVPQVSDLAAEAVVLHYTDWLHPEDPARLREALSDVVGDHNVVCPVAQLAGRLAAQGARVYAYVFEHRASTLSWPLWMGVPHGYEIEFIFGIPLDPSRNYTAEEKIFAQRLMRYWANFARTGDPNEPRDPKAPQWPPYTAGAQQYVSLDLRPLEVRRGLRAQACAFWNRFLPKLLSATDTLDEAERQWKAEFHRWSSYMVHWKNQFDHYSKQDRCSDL

| SMILES | IC50 at 24 h [1] [µM] | IC50 (Bacillus subtilis) [µM] | IC50 (Acetylcholinesterase) [µM] | Activity (Xanthomonas campestris) | Activity (Candida albicans) |
| --- | --- | --- | --- | --- | --- |
| Oc1cccc2nc3c(O)cccc3nc12 | > 50 | 22 | 4.52 |  |  |
| Oc1ccc2nc3ccccc3nc2c1 | > 50 | 75 | > 50 |  |  |
| O=C(N[C@H](CO)[C@H](O)c1ccc([N+](=O)[O-])cc1)C(Cl)Cl [CHLORAMPHENICOL] |  | 1.45 |  |  |  |
| CC(=O)Oc1cccc2nc3c(OC(C)=O)ccc(C/C=C(\C)CCC=C(C)C)c3nc12 [DIACETYLGERANYLPHENAZINEDIOL] | > 50 | 13 | 2.01 | inactive | inactive |
| CC(C)=CCc1cccc2nc3cccc(C(=O)O)c3nc12 [ENDOPHENAZINE A] | > 10 | 111 | > 50 |  |  |
| CC(C)=CCc1cc(=O)cc2n(C)c3cccc(C(=O)O)c3nc1-2 [ENDOPHENAZINE B] | > 50 | > 150 | > 50 |  |  |
| CC(C)=CCC/C(C)=C/Cc1ccc(O)c2nc3cccc(O)c3nc12 [GERANYLPHENAZINEDIOL] | > 50 | 24 | 2.62 | inactive | inactive |
| O=C(O)c1cccc2nc3ccccc3nc12 [PHENAZINE-1-CARBOXYLIC ACID] | > 50 | > 150 | > 50 |  |  |
| CC/C(=C(\c1ccccc1)c1ccc(OCCN(C)C)cc1)c1ccccc1 [TAMOXIFEN] | 23.8 |  |  |  |  |
